Measurements taken from paper PMC12192727, “Strategies to Develop Na,K-ATPase-α4 Inhibitors as Male Contraceptives” (International Journal of Molecular Sciences, 2025).
Like-named read-outs stand apart in the source and are kept apart here.

Legend:
[1] = MDCK cell permeability; conditions: dog, MDCK
[2] = tested on: MDCK cells; assay: MDCK cell permeability; conditions: MDCK cell line, 0.5% BSA
[3] = Metabolic stability in rat hepatocytes; type: in vitro ADME; conditions: rat hepatocytes
Protocol: (§1) The in vitro metabolic half-life (t1/2) is calculated using the slope of the log−linear regression from the percentage of the parent compound remaining versus the time relationship (κ). The experimental details are reported in the Supporting Information (Tables S6 and S7).

[4] = tested on: rat hepatocytes; assay: Metabolic stability in rat hepatocytes; type: in vitro ADME
Protocol: as §1

[5] = Metabolic stability in mouse hepatocytes; type: in vitro ADME; conditions: mouse hepatocytes
Protocol: as §1

[6] = tested on: mouse hepatocytes; assay: Metabolic stability in mouse hepatocytes; type: in vitro ADME
Protocol: as §1

[7] = In vivo pharmacokinetic study; parameters: species or system CD-1 mice; conditions: for Plasma concentration (mean): BLOQ = 0.5 ng/mL; for MRT inf: read-out: MRTInf_obs
Protocol: Male CD-1 mice (approximately 6–8 weeks old, weighing 20–25 g, supplied by Vital River, Beijing, China) were used for the pharmacokinetic studies. Each mouse (n = 2) received either a bolus intravenous injection via the tail vein or oral gavage administration of the test compound. The formulation consisted of 20% HP-b-CD in PBS (pH 7.4), administered at a dose level of 10 mg/kg. The intravenous dose volume was 5 mL/kg, while the oral dose volume was 10 mL/kg. […] At the end of the study, the mice were euthanized by the inhalation of rising carbon dioxide concentrations. Samples were centrifuged at 4000× g for 5 min at 4 °C to obtain plasma. The plasma samples were stored at −75 ± 15 °C before analysis. Plasma samples were analyzed using the LC/MS/MS method. WinNonlin (PhoenixTM, version 8.3) software was employed for pharmacokinetic analysis calculations. The experimental details are reported in the Supporting Information. […]
Snap Shot PK of 45 in CD1-Mice
Formulations IV 20% HP-b-CD in PBS
(1 picture or pasted object on this page, not shown here)
Dosing Solutions: IV 2 mg/mL
IV&PO Plasma: 0 .5, 1, 3, and 5 h
Blood Sampling @ post dose
Mobile Phase A 5% Acetonitrile in Water (0.1%Formic acid)
Quantification Internal Standard Method
10 uL of plasma sample + 5 uL of blank solution +
200 uL of acetonitrile for PPE (protein precipitation
1. BLOQ = 0.5 ng/mL for plasma
3. PK parameters were estimated by non-compartmental model using WinNonlin 8.3
4. The bioavailability (F%) was calculated as following: […]

[8] = LogD, 1-octanol/phosphate buffer pH 7.4; type: physicochemical
[9] = target: hERG channel (Homo sapiens, UniProt Q12809); assay: hERG inhibition manual patch-clamp assay (HEK293)
Chain of hERG channel (Q12809 whole entry): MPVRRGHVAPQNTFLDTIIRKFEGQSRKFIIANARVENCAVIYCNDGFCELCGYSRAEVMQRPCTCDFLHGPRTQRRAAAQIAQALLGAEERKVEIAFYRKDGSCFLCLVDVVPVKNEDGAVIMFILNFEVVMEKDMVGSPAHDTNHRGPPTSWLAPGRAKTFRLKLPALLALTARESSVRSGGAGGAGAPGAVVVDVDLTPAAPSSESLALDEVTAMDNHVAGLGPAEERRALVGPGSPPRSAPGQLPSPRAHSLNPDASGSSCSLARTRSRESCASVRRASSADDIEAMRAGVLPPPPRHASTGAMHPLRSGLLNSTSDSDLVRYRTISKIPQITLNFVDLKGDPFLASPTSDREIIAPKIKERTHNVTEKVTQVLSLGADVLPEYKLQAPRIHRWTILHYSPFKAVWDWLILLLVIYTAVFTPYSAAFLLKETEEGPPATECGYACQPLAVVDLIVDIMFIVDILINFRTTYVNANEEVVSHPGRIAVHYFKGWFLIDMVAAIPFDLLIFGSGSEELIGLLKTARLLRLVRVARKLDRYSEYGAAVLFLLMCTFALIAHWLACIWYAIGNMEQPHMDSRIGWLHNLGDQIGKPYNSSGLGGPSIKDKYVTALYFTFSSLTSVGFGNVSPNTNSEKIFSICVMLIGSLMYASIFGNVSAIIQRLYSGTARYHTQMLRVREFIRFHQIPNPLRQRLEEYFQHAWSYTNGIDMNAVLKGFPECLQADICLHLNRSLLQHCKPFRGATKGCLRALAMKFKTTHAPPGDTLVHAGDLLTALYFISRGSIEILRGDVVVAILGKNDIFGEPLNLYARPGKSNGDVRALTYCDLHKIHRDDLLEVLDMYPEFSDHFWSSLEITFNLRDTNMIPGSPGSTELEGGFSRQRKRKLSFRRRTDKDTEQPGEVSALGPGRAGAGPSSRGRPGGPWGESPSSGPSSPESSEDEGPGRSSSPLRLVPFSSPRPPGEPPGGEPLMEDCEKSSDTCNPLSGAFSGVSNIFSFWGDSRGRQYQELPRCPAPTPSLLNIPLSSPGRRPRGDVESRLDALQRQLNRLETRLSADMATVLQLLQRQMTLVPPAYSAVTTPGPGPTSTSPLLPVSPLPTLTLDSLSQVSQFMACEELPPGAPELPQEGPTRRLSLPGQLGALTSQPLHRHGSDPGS

[10] = tested on: Salmonella typhimurium strains TA98 and TA100; assay: Mini Ames test; type: cell-based; conditions: with and without S9
Protocol: The mutagenic potential of 45 was evaluated using the Mini Ames test, which measures reverse mutations at the histidine locus in Salmonella typhimurium strains TA98 and TA100. The assay was conducted with and without exogenous metabolic activation (β-naphthoflavone/phenobarbital-induced rat liver S9). The experimental details are reported in the Supporting Information).

[11] = male, CD-1, mouse, plasma, CD1 mice, IV 10 mg/kg
[12] = male, CD-1, mouse, plasma, CD1 mice, PO 10 mg/kg
[13] = male, CD-1, mouse, plasma, IV 10 mg/kg
[14] = male, CD-1, mouse, plasma, PO 10 mg/kg
[15] = male, CD-1, mouse, CD1 mice, IV 10 mg/kg, plasma

C[C@]12CC[C@H]3[C@@H](CC=C4C[C@@H](O)CC[C@@]43C)[C@@H]1CC[C@@H]2c1cn(Cc2ccccc2)nn1 [Compound 13, (3S,8S,9S,10R,13S,14S,17S)-17-(1-Benzyl-1H-1,2,3-triazol-4-yl)-10,13-dimethyl-2,3,4,7,8,9,10,11,12,13,14,15,16,17-tetradecahydro-1H-cyclopenta[a]phenanthren-3-ol]
Papp B→A [1]: 0.78 ×10⁻⁶ cm/s | efflux ratio [1]: 1.24 | Papp A→B ([1]; Papp (A-B), MDCK cells, BSA 0% for controls, 0.5% for 13): 0.63 ×10⁻⁶ cm/s | Papp A→B ([1]; Permeability Papp (A-B), MDCK cell line, 0.5% BSA): 0.6 ×10⁻⁶ cm/s | Permeability Papp (A-B) [2]: poor

CC12CCC(=O)C=C1CCCC2n1cc(-c2ccccc2)nn1 (stereo not shown) [Compound 45, 4a-Methyl-5-(4-phenyl-1H-1,2,3-triazol-1-yl)-4,4a,5,6,7,8-hexahydronaphthalen-2(3H)-one]
hepatocyte CLint at 1 μM ([3]; read-out: In vitro Clint): 72.2 µL/min/1e6 cells | half-life at 1 µM ([3]; rat, hepatocytes, read-out: In vitro T1/2): 19.2 min | CLint scaled at 1 µM ([3]; rat, hepatocytes, read-out: Scale-up Clint): 338 mL/min/kg | Remaining Percentage (%) ([4]; rat boiled hepatocytes, 0 min): 100.00% | Remaining Percentage (%) ([4]; rat boiled hepatocytes, 15 min): 101.65% | Remaining Percentage (%) ([4]; rat boiled hepatocytes, 30 min): 104.87% | Remaining Percentage (%) ([4]; rat boiled hepatocytes, 60 min): 104.47% | Remaining Percentage (%) ([4]; rat boiled hepatocytes, 90 min): 104.04% | Remaining Percentage (%) ([4]; rat boiled hepatocytes, 120 min): 104.50% | Hepatic Extraction Ratio (E) ([4]; rat hepatocytes): 0.86 | Predicted hepatic CL ([4]; rat hepatocytes): 47.44 mL/min/kg | Remaining Percentage (%) ([4]; rat hepatocytes, 0 min): 100.00% | Remaining Percentage (%) ([4]; rat hepatocytes, 15 min): 51.55% | Remaining Percentage (%) ([4]; rat hepatocytes, 30 min): 26.35% | Remaining Percentage (%) ([4]; rat hepatocytes, 60 min): 9.77% | Remaining Percentage (%) ([4]; rat hepatocytes, 90 min): 3.36% | Remaining Percentage (%) ([4]; rat hepatocytes, 120 min): 1.25% | Metabolic Stability in Hepatocytes (60 min), compound remaining ([4]; rat, 60 min): 10% | hepatocyte CLint at 1 μM ([5]; read-out: In vitro Clint): 77.1 µL/min/1e6 cells | CLint scaled at 1 µM ([5]; read-out: Scale-up Clint): 911 mL/min/kg | half-life at 1 µM ([5]; mouse, hepatocytes, read-out: In vitro T1/2): 18 min | Remaining Percentage (%) ([6]; mouse boiled hepatocytes, 0 min): 100.00% | Remaining Percentage (%) ([6]; mouse boiled hepatocytes, 15 min): 104.93% | Remaining Percentage (%) ([6]; mouse boiled hepatocytes, 30 min): 101.77% | Remaining Percentage (%) ([6]; mouse boiled hepatocytes, 60 min): 101.78% | Remaining Percentage (%) ([6]; mouse boiled hepatocytes, 90 min): 101.42% | Remaining Percentage (%) ([6]; mouse boiled hepatocytes, 120 min): 100.86% | Hepatic Extraction Ratio (E) ([6]; mouse hepatocytes): 0.91 | Predicted hepatic CL ([6]; mouse hepatocytes): 81.91 mL/min/kg | Remaining Percentage (%) ([6]; mouse hepatocytes, 0 min): 100.00% | Remaining Percentage (%) ([6]; mouse hepatocytes, 15 min): 54.16% | Remaining Percentage (%) ([6]; mouse hepatocytes, 30 min): 31.17% | Remaining Percentage (%) ([6]; mouse hepatocytes, 60 min): 10.30% | Remaining Percentage (%) ([6]; mouse hepatocytes, 90 min): 3.01% | Remaining Percentage (%) ([6]; mouse hepatocytes, 120 min): 0.80% | Metabolic Stability in Hepatocytes (60 min), compound remaining ([6]; mouse, 60 min): 10% | AUC_%Extrap_obs ([7]; CD1 mice, IV 10 mg/kg): 0.250% | AUClast/D ([7]; CD1 mice, IV 10 mg/kg): 55.9 kg·ng·h/mL/mg | Vss_obs ([7]; CD1 mice, IV 10 mg/kg (supplement)): 1.10 L/kg | AUC_%Extrap_obs ([7]; CD1 mice, PO 10 mg/kg): 3.43% | AUClast/D ([7]; CD1 mice, PO 10 mg/kg): 7.43 kg·ng·h/mL/mg | F% (oral bioavailability) ([7]; CD1 mice, PO 10 mg/kg, 10 mg/kg): 13.7% | Plasma concentration (mean) ([7]; IV 10 mg/kg, 3 h): BLOQ | Plasma concentration (mean) ([7]; IV 10 mg/kg, 5 h): BLOQ | bioavailability ([7]; male, CD-1, mouse, plasma, po, 10 mg/kg, CD1 mice, PO 10 mg/kg, read-out: F% (oral bioavailability)): 14% | AUC(0-inf) [7, 11]: 561 ng·h/mL | AUC(0-t) [7, 11]: 559 ng·h/mL | half-life [7, 11]: 7.5 min | Vd ([7]; male, CD-1, mouse, plasma, CD1 mice, IV 10 mg/kg (Table 5), read-out: Vss): 1.1 L/kg | MRT inf [7, 11]: 3.7 min | AUC(0-inf) [7, 12]: 77 ng·h/mL | AUC(0-t) [7, 12]: 74.3 ng·h/mL | Tmax [7, 12]: 30 min | half-life [7, 12]: 64.2 min | MRT inf [7, 12]: 67.8 min | concentration at 0.5 h [7, 13]: 124 ng/mL | concentration at 1 h [7, 13]: 7.76 ng/mL | concentration at 0.5 h [7, 14]: 79.7 ng/mL | concentration at 1 h [7, 14]: 22.8 ng/mL | concentration at 3 h ([7]; male, CD-1, mouse, plasma, PO 10 mg/kg, 3 h): 2.14 ng/mL | concentration at 5 h ([7]; male, CD-1, mouse, plasma, PO 10 mg/kg, 5 h): 1.71 ng/mL | clearance ([7]; male, CD-1, mouse, plasma, mice, intravenous 10 mg/kg, read-out: clearance rate): 297 mL/min/kg | C0 [7, 15]: 1980 ng/mL | Cmax [7, 15]: 124 ng/mL | Cmax ([7]; male, CD-1, mouse, CD1 mice, PO 10 mg/kg, plasma): 79.7 ng/mL | logD [8]: 2.66 | IC50 [9]: > 30 µM | Mini Ames [10]: Mini Ames ^e: negative
